Results taken from PubChem BioAssay AID1259407 (Chemical Carcinogenesis Research Information System (CCRIS), 2018).
Calls of active or inactive are those of the source. How the calls were made is not given here.

Tested on: CCRIS mutagenicity, Ames/micronucleus/aberration tests
Test: CCRIS mutagenicity studies
[1] = Test System: AMES SALMONELLA TYPHIMURIUM, Strain/Indicator: TA1537, Metabolic Activation: NONE, Method: PREINCUBATION
[2] = Test System: AMES SALMONELLA TYPHIMURIUM, Strain/Indicator: TA98, Metabolic Activation: NONE, Method: STANDARD PLATE
[3] = Test System: AMES SALMONELLA TYPHIMURIUM, Strain/Indicator: TA98, Metabolic Activation: RAT, LIVER, S-9, AROCLOR 1254, Method: STANDARD PLATE
[4] = Test System: AMES SALMONELLA TYPHIMURIUM, Strain/Indicator: TA100, Metabolic Activation: NONE, Method: STANDARD PLATE
[5] = Test System: AMES SALMONELLA TYPHIMURIUM, Strain/Indicator: TA100, Metabolic Activation: RAT, LIVER, S-9, AROCLOR 1254, Method: STANDARD PLATE
[6] = Test System: AMES SALMONELLA TYPHIMURIUM, Strain/Indicator: TA1535, Metabolic Activation: NONE, Method: STANDARD PLATE
[7] = Test System: AMES SALMONELLA TYPHIMURIUM, Strain/Indicator: TA1535, Metabolic Activation: RAT, LIVER, S-9, AROCLOR 1254, Method: STANDARD PLATE
[8] = Test System: AMES SALMONELLA TYPHIMURIUM, Strain/Indicator: TA1537, Metabolic Activation: NONE, Method: STANDARD PLATE
[9] = Test System: AMES SALMONELLA TYPHIMURIUM, Strain/Indicator: TA1537, Metabolic Activation: RAT, LIVER, S-9, AROCLOR 1254, Method: STANDARD PLATE
[10] = Test System: AMES SALMONELLA TYPHIMURIUM, Strain/Indicator: TA1538, Metabolic Activation: NONE, Method: STANDARD PLATE
[11] = Test System: AMES SALMONELLA TYPHIMURIUM, Strain/Indicator: TA1538, Metabolic Activation: RAT, LIVER, S-9, AROCLOR 1254, Method: STANDARD PLATE
[12] = Test System: MOUSE LYMPHOMA, Strain/Indicator: L5178Y (TK+/TK-), Metabolic Activation: NONE, Method: SUSPENSION/PLATE

Measured: mutagenic call

Nc1ccc2cc3ccccc3nc2c1
inactive: Test System: AMES SALMONELLA TYPHIMURIUM, Strain/Indicator: TA1535, Metabolic Activation: NONE, Method: PREINCUBATION inactive; negative | Test System: AMES SALMONELLA TYPHIMURIUM, Strain/Indicator: TA1975, Metabolic Activation: RAT, LIVER, S-9, TETRACHLOROBIPHENYL, Method: PREINCUBATION inactive; negative
active: Test System: AMES SALMONELLA TYPHIMURIUM, Strain/Indicator: TA1535, Metabolic Activation: RAT, LIVER, S-9, TETRACHLOROBIPHENYL, Method: PREINCUBATION active; positive | [1] active; positive | Test System: AMES SALMONELLA TYPHIMURIUM, Strain/Indicator: TA1537, Metabolic Activation: RAT, LIVER, S-9, TETRACHLOROBIPHENYL, Method: PREINCUBATION active; positive | Test System: AMES SALMONELLA TYPHIMURIUM, Strain/Indicator: TA1538, Metabolic Activation: NONE, Method: PREINCUBATION active; positive | Test System: AMES SALMONELLA TYPHIMURIUM, Strain/Indicator: TA1538, Metabolic Activation: RAT, LIVER, S-9, TETRACHLOROBIPHENYL, Method: PREINCUBATION active; positive | Test System: AMES SALMONELLA TYPHIMURIUM, Strain/Indicator: TA1977, Metabolic Activation: NONE, Method: PREINCUBATION active; positive | Test System: AMES SALMONELLA TYPHIMURIUM, Strain/Indicator: TA1977, Metabolic Activation: RAT, LIVER, S-9, TETRACHLOROBIPHENYL, Method: PREINCUBATION active; positive | Test System: AMES SALMONELLA TYPHIMURIUM, Strain/Indicator: TA1978, Metabolic Activation: RAT, LIVER, S-9, TETRACHLOROBIPHENYL, Method: PREINCUBATION active; positive

O=C1c2ccccc2-c2c3c(cc4ccnc1c24)OCO3
active: Test System: AMES SALMONELLA TYPHIMURIUM, Strain/Indicator: TA98, Metabolic Activation: RAT, LIVER, S-9, PHENOBARBITAL AND BETA-NAPHTHOFLAVONE, Method: PREINCUBATION active; positive | Test System: AMES SALMONELLA TYPHIMURIUM, Strain/Indicator: TA100, Metabolic Activation: RAT, LIVER, S-9, PHENOBARBITAL AND BETA-NAPHTHOFLAVONE, Method: PREINCUBATION active; positive
inactive: Test System: AMES SALMONELLA TYPHIMURIUM, Strain/Indicator: TA98, Metabolic Activation: NONE, Method: PREINCUBATION inactive; negative | Test System: AMES SALMONELLA TYPHIMURIUM, Strain/Indicator: TA100, Metabolic Activation: NONE, Method: PREINCUBATION inactive; negative

COc1ccc(CNCC(O)COc2ccc3[nH]c(=O)ccc3c2)cc1OC (configuration not stated)
inactive: [2] inactive; negative | [3] inactive; negative | [4] inactive; negative | [5] inactive; negative | [6] inactive; negative | [7] inactive; negative | [8] inactive; negative | [9] inactive; negative | [10] inactive; negative | [11] inactive; negative | Test System: E. COLI, Strain/Indicator: WP2 UVRA, Metabolic Activation: NONE, Method: STANDARD PLATE inactive; negative | Test System: E. COLI, Strain/Indicator: WP2 UVRA, Metabolic Activation: RAT, LIVER, S-9, AROCLOR 1254, Method: STANDARD PLATE inactive; negative
active: [12] active; positive

O=C1C=C(CCl)CO1
active: [4] active; positive

O=[N+]([O-])c1cc([N+](=O)[O-])c2c3c(c4cccc5ccc1c2c54)CCCC3
active: [2] active; positive | [3] active; positive

Cc1ccc2nc3ccccc3c(N)c2c1
active: [1] active; positive

Cc1cc(C)c2cc(C)c(N)cc2n1
active: Test System: AMES SALMONELLA TYPHIMURIUM, Strain/Indicator: TA98, Method: STANDARD PLATE active; positive

CC(C)NCC(O)COc1ccc(CC(N)=O)cc1 (configuration not stated)
inactive: Test System: AMES SALMONELLA TYPHIMURIUM, Strain/Indicator: TA98, Metabolic Activation: NONE inactive; negative | Test System: AMES SALMONELLA TYPHIMURIUM, Strain/Indicator: TA98, Metabolic Activation: RAT, LIVER, S-9, AROCLOR 1254 inactive; negative | Test System: AMES SALMONELLA TYPHIMURIUM, Strain/Indicator: TA100, Metabolic Activation: NONE inactive; negative | Test System: AMES SALMONELLA TYPHIMURIUM, Strain/Indicator: TA100, Metabolic Activation: RAT, LIVER, S-9, AROCLOR 1254 inactive; negative | Test System: AMES SALMONELLA TYPHIMURIUM, Strain/Indicator: TA1535, Metabolic Activation: NONE inactive; negative | Test System: AMES SALMONELLA TYPHIMURIUM, Strain/Indicator: TA1535, Metabolic Activation: RAT, LIVER, S-9, AROCLOR 1254 inactive; negative | Test System: AMES SALMONELLA TYPHIMURIUM, Strain/Indicator: TA1537, Metabolic Activation: NONE inactive; negative | Test System: AMES SALMONELLA TYPHIMURIUM, Strain/Indicator: TA1537, Metabolic Activation: RAT, LIVER, S-9, AROCLOR 1254 inactive; negative | Test System: UDS HUMAN HEPATOCYTES, Strain/Indicator: THY INCORP, Metabolic Activation: NONE, Method: AUTORADIOGRAPHY inactive; negative | Test System: UDS RAT HEPATOCYTES, Strain/Indicator: THY INCORP, Metabolic Activation: NONE, Method: AUTORADIOGRAPHY inactive; negative

ONc1ccccc1
active: Test System: AMES SALMONELLA TYPHIMURIUM, Strain/Indicator: TA100, Metabolic Activation: RAT, LIVER, S-9, PCB, Method: PREINCUBATION active; positive
inactive: Test System: E. COLI, Strain/Indicator: WP2 UVRA, Metabolic Activation: NONE, Method: FLUCTUATION TEST inactive; negative

O=CC(=C(Cl)Cl)C(Cl)Cl
active: [4] active; positive

O=c1[nH]cnc2[nH]ncc12
inactive: Test System: AMES SALMONELLA TYPHIMURIUM, Strain/Indicator: TA98, Metabolic Activation: HAMSTER, LIVER, S-9, AROCLOR 1254, Method: STANDARD PLATE inactive; negative | [2] inactive; negative | [3] inactive; negative | Test System: AMES SALMONELLA TYPHIMURIUM, Strain/Indicator: TA100, Metabolic Activation: HAMSTER, LIVER, S-9, AROCLOR 1254, Method: STANDARD PLATE inactive; negative | [4] inactive; negative | [5] inactive; negative | Test System: AMES SALMONELLA TYPHIMURIUM, Strain/Indicator: TA1535, Metabolic Activation: HAMSTER, LIVER, S-9, AROCLOR 1254, Method: STANDARD PLATE inactive; negative | [6] inactive; negative | [7] inactive; negative | Test System: AMES SALMONELLA TYPHIMURIUM, Strain/Indicator: TA1537, Metabolic Activation: HAMSTER, LIVER, S-9, AROCLOR 1254, Method: STANDARD PLATE inactive; negative | [8] inactive; negative | [9] inactive; negative | Test System: AMES SALMONELLA TYPHIMURIUM, Strain/Indicator: TA1538, Metabolic Activation: HAMSTER, LIVER, S-9, AROCLOR 1254, Method: STANDARD PLATE inactive; negative | [10] inactive; negative | [11] inactive; negative | [12] inactive; negative. reevaluation of results: negative | Test System: MOUSE LYMPHOMA, Strain/Indicator: L5178Y (TK+/TK-), Metabolic Activation: RAT, LIVER, S-9, AROCLOR 1254, Method: SUSPENSION/PLATE inactive; negative. reevaluation of results: negative
